From PubChem BioAssay AID1963975 (Molecular Pharmacology Branch, DTP, NCI, 2024)
Where “and” joins values, the source holds several entries; their conditions need not be identical. Equal values may be shown once. Blank lines part the entries; values can stand above or below the compound they belong to.

System: 624824-186-R-J2-PDC multicell spheroids, viability
Assay: Anticancer human tumor 624824-186-R-J2-PDC patient-derived colon adenocarcinoma cell line growth inhibition [PI3K]
Conditions: for viability, T/C: stronger effect = lower value
Summary of the method: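 Viability of mixed-cell spheroids was determined after exposure to pairwise combinations, one partner being inavolisib, alpelisib, duvelisib or copanlisib. Highest tested concentration matched clinical Cmax where known and 10 microM where not, descending in half-log steps.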

[1] = curve of first compound, second compound 0.0316 µM
[2] = curve of first compound, second compound 0.1 µM
[3] = curve of first compound, second compound 0.316 µM
[4] = curve of first compound, second compound 1 µM
[5] = curve of first compound, second compound 3.16 µM
[6] = curve of first compound, second compound 10 µM
[7] = second compound 0.0316 µM, first compound 0.0316 µM
[8] = second compound 0.0316 µM, first compound 0.1 µM
[9] = second compound 0.0316 µM, first compound 0.316 µM
[10] = second compound 0.0316 µM, first compound 1 µM
[11] = second compound 0.0316 µM, first compound 3.16 µM
[12] = second compound 0.0316 µM, first compound 10 µM
[13] = second compound 0.1 µM, first compound 0.0316 µM
[14] = second compound 0.1 µM, first compound 0.1 µM
[15] = second compound 0.1 µM, first compound 0.316 µM
[16] = second compound 0.1 µM, first compound 1 µM
[17] = second compound 0.1 µM, first compound 3.16 µM
[18] = second compound 0.1 µM, first compound 10 µM
[19] = second compound 0.316 µM, first compound 0.0316 µM
[20] = second compound 0.316 µM, first compound 0.1 µM
[21] = second compound 0.316 µM, first compound 0.316 µM
[22] = second compound 0.316 µM, first compound 1 µM
[23] = second compound 0.316 µM, first compound 3.16 µM
[24] = second compound 0.316 µM, first compound 10 µM
[25] = second compound 1 µM, first compound 0.0316 µM
[26] = second compound 1 µM, first compound 0.1 µM
[27] = second compound 1 µM, first compound 0.316 µM
[28] = second compound 1 µM, first compound 1 µM
[29] = second compound 1 µM, first compound 3.16 µM
[30] = second compound 1 µM, first compound 10 µM
[31] = second compound 3.16 µM, first compound 0.0316 µM
[32] = second compound 3.16 µM, first compound 0.1 µM
[33] = second compound 10 µM, first compound 0.0316 µM
[34] = second compound 10 µM, first compound 0.1 µM
[35] = curve of first compound, second compound 0.00316 µM
[36] = curve of first compound, second compound 0.01 µM
[37] = second compound 0.00316 µM, first compound 0.0316 µM
[38] = second compound 0.00316 µM, first compound 0.1 µM
[39] = second compound 0.00316 µM, first compound 0.316 µM
[40] = second compound 0.00316 µM, first compound 1 µM
[41] = second compound 0.00316 µM, first compound 3.16 µM
[42] = second compound 0.00316 µM, first compound 10 µM
[43] = second compound 0.01 µM, first compound 0.0316 µM
[44] = second compound 0.01 µM, first compound 0.1 µM
[45] = second compound 0.01 µM, first compound 0.316 µM
[46] = second compound 0.01 µM, first compound 1 µM
[47] = second compound 0.01 µM, first compound 3.16 µM
[48] = second compound 0.01 µM, first compound 10 µM
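Also: spheroids exposed to agents for 7 days before viability read.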
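For viability, T/C in this document: 100% = DMSO vehicle treated spheroids.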

IC50 [35]: > 10 µM
IC50 [36]: > 10 µM
IC50 [1]: 0.37 µM
IC50 [2]: 0.138 µM
IC50 [3]: 0.0535 µM
IC50 [4]: 0.0374 µM
SMILES: Cn1nccc1Nc1nccc(-c2ccn(C(CO)c3ccc(Cl)c(F)c3)c(=O)c2)n1 (stereo not drawn) + COc1c(OCCCN2CCOCC2)ccc2c3n(c(=NC(=O)c4cnc(N)nc4)nc12)CCN3
viability, T/C [37]: 102%
viability, T/C [38]: 86.5%
viability, T/C [39]: 78.2%
viability, T/C [40]: 75.5%
viability, T/C [41]: 82.7%
viability, T/C [42]: 81.2%
viability, T/C [43]: 102%
viability, T/C [44]: 71.9%
viability, T/C [45]: 74.2%
viability, T/C [46]: 67%
viability, T/C [47]: 66.7%
viability, T/C [48]: 50.5%
viability, T/C [7]: 85.7%
viability, T/C [8]: 59%
viability, T/C [9]: 58.9%
viability, T/C [10]: 37.1%
viability, T/C [11]: 33.6%
viability, T/C [12]: 26.5%
viability, T/C [13]: 69.5%
viability, T/C [14]: 53.3%
viability, T/C [15]: 39.1%
viability, T/C [16]: 30.9%
viability, T/C [17]: 26.6%
viability, T/C [18]: 15.6%
viability, T/C [19]: 55.3%
viability, T/C [20]: 42.7%
viability, T/C [21]: 36.3%
viability, T/C [22]: 22.8%
viability, T/C [23]: 15.1%
viability, T/C [24]: 11.8%
viability, T/C [25]: 51.5%
viability, T/C [26]: 42.9%
viability, T/C [27]: 36.8%
viability, T/C [28]: 26.5%
viability, T/C [29]: 14.9%
viability, T/C [30]: 7.14%

IC50 [35]: 10 µM
IC50 [36]: 8.49 µM
IC50 [1]: 7.85 µM
IC50 [2]: 6.22 µM
IC50 [3]: 4.65 µM
IC50 [4]: 3.58 µM
SMILES: CCCS(=O)(=O)Nc1ccc(F)c(C(=O)c2c[nH]c3ncc(-c4ccc(Cl)cc4)cc23)c1F + CC(Nc1ccc2c(c1)OCCn1cc(N3C(=O)OCC3C(F)F)nc1-2)C(N)=O
viability, T/C [37]: 78.1%
viability, T/C [38]: 112%
viability, T/C [39]: 87.8%
viability, T/C [40]: 119%
viability, T/C [41]: 113%
viability, T/C [42]: 50%
viability, T/C [43]: 92.7%
viability, T/C [44]: 89.7%
viability, T/C [45]: 73.6%
viability, T/C [46]: 82.7%
viability, T/C [47]: 109%
viability, T/C [48]: 43.5%
viability, T/C [7]: 82.7%
viability, T/C [8]: 88.3%
viability, T/C [9]: 73.5%
viability, T/C [10]: 89.1%
viability, T/C [11]: 108%
viability, T/C [12]: 39.7%
viability, T/C [13]: 80%
viability, T/C [14]: 89.8%
viability, T/C [15]: 81.9%
viability, T/C [16]: 72.3%
viability, T/C [17]: 76.3%
viability, T/C [18]: 32.7%
viability, T/C [19]: 67.9%
viability, T/C [20]: 78.5%
viability, T/C [21]: 71.7%
viability, T/C [22]: 68%
viability, T/C [23]: 62.1%
viability, T/C [24]: 26.8%
viability, T/C [25]: 80.5%
viability, T/C [26]: 68.6%
viability, T/C [27]: 68.7%
viability, T/C [28]: 53.2%
viability, T/C [29]: 63.1%
viability, T/C [30]: 23.8%

IC50 (curve of compound): > 10 µM
SMILES: CC1(C)CCC(CN2CCN(c3ccc(C(=O)NS(=O)(=O)c4ccc(NCC5CCOCC5)c([N+](=O)[O-])c4)c(Oc4cnc5[nH]ccc5c4)c3)CC2)=C(c2ccc(Cl)cc2)C1
viability, T/C (compound 0.1 µM): 78.7% (2×) and 107% and 95.2%
viability, T/C (compound 0.316 µM): 80.4% [middle of 4 runs]
viability, T/C (compound 3.16 µM): 67% [middle of 4 runs]
viability, T/C (compound 10 µM): 72.2% [middle of 4 runs]

The next lines start with the compound.

SMILES: CC1(C)CCC(CN2CCN(c3ccc(C(=O)NS(=O)(=O)c4ccc(NCC5CCOCC5)c([N+](=O)[O-])c4)c(Oc4cnc5[nH]ccc5c4)c3)CC2)=C(c2ccc(Cl)cc2)C1 + Cc1nc(NC(=O)N2CCCC2C(N)=O)sc1-c1ccnc(C(C)(C)C(F)(F)F)c1
IC50 [1]: > 10 µM
IC50 [2]: > 10 µM
IC50 [3]: > 10 µM
IC50 [4]: > 10 µM
IC50 [5]: > 10 µM
IC50 [6]: 6.9 µM
viability, T/C [7]: 103%
viability, T/C [8]: 93.7%
viability, T/C [9]: 95.9%
viability, T/C [10]: 68.5%
viability, T/C [11]: 70.9%
viability, T/C [12]: 67.1%
viability, T/C [13]: 84.3%
viability, T/C [14]: 88.3%
viability, T/C [15]: 88.2%
viability, T/C [16]: 80.8%
viability, T/C [17]: 84.1%
viability, T/C [18]: 51.7%
viability, T/C [19]: 82.9%
viability, T/C [20]: 86.9%
viability, T/C [21]: 75.6%
viability, T/C [22]: 72.1%
viability, T/C [23]: 67.1%
viability, T/C [24]: 67.5%
viability, T/C [25]: 91.3%
viability, T/C [26]: 78.9%
viability, T/C [27]: 79.6%
viability, T/C [28]: 80.3%
viability, T/C [29]: 100%
viability, T/C [30]: 77.3%
viability, T/C [31]: 68.1%
viability, T/C [32]: 76.9%
viability, T/C (second compound 3.16 µM, first compound 0.316 µM): 80.3%
viability, T/C (second compound 3.16 µM, first compound 1 µM): 94.7%
viability, T/C (second compound 3.16 µM, first compound 3.16 µM): 83.6%
viability, T/C (second compound 3.16 µM, first compound 10 µM): 50.4%
viability, T/C [33]: 73%
viability, T/C [34]: 79.4%
viability, T/C (second compound 10 µM, first compound 0.316 µM): 68.5%
viability, T/C (second compound 10 µM, first compound 1 µM): 74.3%
viability, T/C (second compound 10 µM, first compound 3.16 µM): 82.6%
viability, T/C (second compound 10 µM, first compound 10 µM): 37.9%

SMILES: CC(=O)c1c(C)c2cnc(Nc3ccc(N4CCNCC4)cn3)nc2n(C2CCCC2)c1=O + Cc1nc(NC(=O)N2CCCC2C(N)=O)sc1-c1ccnc(C(C)(C)C(F)(F)F)c1
IC50 [1]: > 0.1 µM
IC50 [2]: > 0.1 µM
IC50 [3]: > 0.1 µM
IC50 [4]: > 0.1 µM
IC50 [5]: > 0.1 µM
IC50 [6]: > 0.1 µM
viability, T/C (second compound 0.0316 µM, first compound 0.000316 µM): 81.6%
viability, T/C (second compound 0.0316 µM, first compound 0.001 µM): 72.8%
viability, T/C (second compound 0.0316 µM, first compound 0.00316 µM): 83.6%
viability, T/C (second compound 0.0316 µM, first compound 0.01 µM): 79.2%
viability, T/C [7]: 74.1%
viability, T/C [8]: 82.8%
viability, T/C (second compound 0.1 µM, first compound 0.000316 µM): 98.2%
viability, T/C (second compound 0.1 µM, first compound 0.001 µM): 105%
viability, T/C (second compound 0.1 µM, first compound 0.00316 µM): 93.6%
viability, T/C (second compound 0.1 µM, first compound 0.01 µM): 75.9%
viability, T/C [13]: 91.4%
viability, T/C [14]: 76.2%
viability, T/C (second compound 0.316 µM, first compound 0.000316 µM): 89%
viability, T/C (second compound 0.316 µM, first compound 0.001 µM): 80.6%
viability, T/C (second compound 0.316 µM, first compound 0.00316 µM): 85%
viability, T/C (second compound 0.316 µM, first compound 0.01 µM): 97.4%
viability, T/C [19]: 88.3%
viability, T/C [20]: 88.7%
viability, T/C (second compound 1 µM, first compound 0.000316 µM): 96.3%
viability, T/C (second compound 1 µM, first compound 0.001 µM): 78.9%
viability, T/C (second compound 1 µM, first compound 0.00316 µM): 88.5%
viability, T/C (second compound 1 µM, first compound 0.01 µM): 87.2%
viability, T/C [25]: 82.5%
viability, T/C [26]: 77.2%
viability, T/C (second compound 3.16 µM, first compound 0.000316 µM): 80.9%
viability, T/C (second compound 3.16 µM, first compound 0.001 µM): 83.6%
viability, T/C (second compound 3.16 µM, first compound 0.00316 µM): 91.1%
viability, T/C (second compound 3.16 µM, first compound 0.01 µM): 80.7%
viability, T/C [31]: 85.1%
viability, T/C [32]: 75.1%
viability, T/C (second compound 10 µM, first compound 0.000316 µM): 73.8%
viability, T/C (second compound 10 µM, first compound 0.001 µM): 67.5%
viability, T/C (second compound 10 µM, first compound 0.00316 µM): 72.1%
viability, T/C (second compound 10 µM, first compound 0.01 µM): 75.9%
viability, T/C [33]: 66%
viability, T/C [34]: 56.9%
